According to publication PMC3548994 (Biochemistry, 2012):
Non-standard residues stand in square brackets, D forms with d. No end group written: not given here. pT = C[C@@H](OP(=O)(O)O)[C@H](N)C(=O)O

What was measured:
[1] = target: Pin1-WW domain (WW50, Pin1 residues 1-50) (Homo sapiens, UniProt Q13526); experiment: NMR titration of ^15N-WW50 with phosphate or HEPES; type: binding; details: at 10 mM buffer anion and 1 mM WW domain, calculated from KD
[2] = test system: Pin1-WW domain binding surface; experiment: HSQC NMR of WW53 and mutants versus WW50
[3] = target: Pin1-WW domain construct WW50 (Pin1 residues 1-50) (UniProt Q13526 1-50, 15N-labelled (uniform) in the NMR titrations); experiment: NMR titration
[4] = C-terminal mutants of WW53 compared with WW53 and WW50

WW domain bound to buffer anion [1] | Molecule | HSQC peak shifts of key binding surface residues versus WW53 [2, 4] | also measured
6% | O=S(=O)(O)CCN1CCN(CCO)CC1 [HEPES] | – | –
15% | O=P(O)(O)O [phosphate, sodium phosphate] | – | –

Continued, molecule first:

Molecule | WW domain bound to buffer anion [1] | HSQC peak shifts of key binding surface residues versus WW53 [2, 4] | also measured
WW53 E51A/P52A: WW53 construct (Pin1 residues 1-53) with E51A/P52A mutations (MADEEKLPPGWEKRMSRSSGRVYYFNHITNASQWERPSGNSSSGGKNGQGAAA; residues 1-53 (WW domain); UniProt Q13526 1-53, looked up, variant E51A P52A) | – | progressive peak shifts for key binding surface residues | –
WW53 E51A: WW53 construct (Pin1 residues 1-53) with E51A mutation (MADEEKLPPGWEKRMSRSSGRVYYFNHITNASQWERPSGNSSSGGKNGQGAPA; residues 1-53 (WW domain); UniProt Q13526 1-53, looked up, variant E51A) | – | progressive peak shifts for key binding surface residues | HSQC peak shifts of key binding surface residues versus WW53 ([2]; C-terminal mutants of WW53 compared with WW53 and WW50, listed as E51A): progressively shifted some key binding surface peaks toward their WW50 positions
GVVEVDAAV[pT]PEERHLSKMQQNGY (peptide, UniProt P05067-4 659-682, looked up) [phosphopeptide representing APP residues 659-682 phosphorylated at T668 (pAPP659-682)] | – | – | koff [3]: 2040 s⁻¹; kon [3]: 9.1e+07 M⁻¹ s⁻¹
